Laboratory results reported in patent US6333313A, “Clinical use of oxytocin alone or in combination to treat bone disorders” (Board of Regents, The University of Texas System, priority 1999, dated 2001).
Blank lines part the entries; values can stand above or below the molecule they belong to. Starred links: 1 amine or outer side, 2 acyl side, 3 side chain; linkers in the order of their positions; H or OH if unused. Positions of bridges follow the written chain, without caps; N, C: chain ends. Non-standard residues stand in square brackets, D forms with d. Residues, ends and D or L forms follow the SMILES beside them. No end group written: not given here. X1 = O=C(CC1(S[*:2])CCCCC1)[*:1]; Orn = NCCC[C@H](N)C(=O)O

Assays:
[1] = test system: Undifferentiated and differentiated osteoblastic cells; experiment: PGE2 levels in media of OT-stimulated cells (EIA); format: cell-based, human; conditions: 100 nM OT, over nontreated controls
Experimental: FIG. 4A and FIG. 4B PGE2 levels in media of cells stimulated with 100 nM OT. (FIG. 4A.) Undifferentiated osteoblastic cells and (FIG. 4B.) differentiated osteoblastic cells. Each point is the mean +/- SE of triplicates. * indicates P<0.05 compared to matched basal control.
Prostaglandin E2 (PGE2) levels. PGE2 levels in media were measured using a PGE2 enzyme immunoassay (EIA) system from Amersham Life Sciences (Arlington Heights, Ill.) as previously described (Copland, et al., 1999). The sensitivity of the assay was 2.5 pg/ml with an intraassay coefficient of variation of 6.3% and the interassay coefficient of variation of 6.9%.
Undifferentiated and differentiated osteoblastic cells were tested to determine whether OT could stimulate PGE2 synthesis. Undifferentiated osteoblastic cells that were allowed to come to confluence and maintained for 2 weeks in either 10% FBS/DMEM or in mineralizing medium (differentiated osteoblast), synthesized and released PGE2 into the media in response to 100 nM OT (FIG. 4A and FIG. 4B, respectively).

OTR [2] = target: T1, OTR (Homo sapiens, UniProt P30559); experiment: Intracellular calcium levels, undifferentiated osteoblastic cells; format: cell-based; set-up: Undifferentiated or differentiated human trabecular bone cells with osteogenic capacity in primary culture express oxytocin receptors (OTRs); endogenous in cells; host or cells: primary human osteoblastic cells from rib trabecular bone explants (undifferentiated, or differentiated in mineralizing medium); conditions: 10 nM OT
T1 sequence (P30559 1-389): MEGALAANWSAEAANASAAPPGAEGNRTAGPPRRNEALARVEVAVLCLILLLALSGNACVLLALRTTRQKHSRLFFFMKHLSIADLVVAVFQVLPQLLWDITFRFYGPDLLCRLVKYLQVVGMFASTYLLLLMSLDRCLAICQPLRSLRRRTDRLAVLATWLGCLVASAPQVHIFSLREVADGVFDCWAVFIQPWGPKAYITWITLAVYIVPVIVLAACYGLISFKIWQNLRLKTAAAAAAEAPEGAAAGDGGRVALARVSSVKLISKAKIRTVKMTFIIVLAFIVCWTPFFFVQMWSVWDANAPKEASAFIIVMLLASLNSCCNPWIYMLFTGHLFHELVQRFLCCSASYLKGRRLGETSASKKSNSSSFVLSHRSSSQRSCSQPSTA
Experimental: (§1) FIG. 3A, FIG. 3B and FIG. 3C Intracellular calcium transients after 10 nM oxytocin treatment. (FIG. 3A.) Undifferentiated osteoblastic cells; (FIG. 3B.) differentiated osteoblastic cells; and (FIG. 3C.) Saos-2 cells. Cells were incubated at 37C and treated in the following manner; 100 nM OTA for 1 min, […], wash cells 3 times to remove bound antagonist, 10 min recovery, and then 10 nM OT treatment.
(§2) Cell Culture Conditions: Human osteosarcoma cells (Saos-2) cells were obtained from the ATCC (Rockville, Md.). Human osteoblasts (Cheng et al., 1994; Civitelli et al., 1993) were prepared from explants of cultured rib trabecular. These cells were grown in mineralizing media consisting of DMEM supplemented with 10% fetal bovine serum (FBS), 2% penicillin/streptomycin, dexamethasone (100 nM), ascorbate (50 μg/ml, and β3-glycerophosphate (10 μg/ml) in a humidified tissue culture incubator at 37C under an atmosphere of 5% CO2 and 95% air. These conditions accelerate the osteoblastic modulation of undifferentiated human trabecular bone cells and the production of osteogenic mineralizeable collagen matrix (Cheng et al., Civitelli et al., 1993). To retain undifferentiated osteoblastic phenotype, cells were cultured in the absence of dexamethasone, ascorbate, and β-glycerophosphate. […]

OTR [3] = target: T1, OTR; experiment: Intracellular calcium levels, Saos-2 cells; format: cell-based; conditions: 10 nM OT
Experimental: as §1, §2

OTR [4] = target: T1, OTR; experiment: Intracellular calcium levels, differentiated osteoblastic cells; format: cell-based; set-up: Undifferentiated or differentiated human trabecular bone cells with osteogenic capacity in primary culture express oxytocin receptors (OTRs); endogenous in cells; host or cells: primary human osteoblastic cells from rib trabecular bone explants (undifferentiated, or differentiated in mineralizing medium); conditions: 10 nM OT
Experimental: as §1, §2

cortical bone [5] = conditions: injections with mild exercise; old female rats; cited from earlier work
bone formation [6] = conditions: systemic administration; cited from earlier work
OTR [7] = target: T1, OTR; experiment: Whole cell OTR ligand binding, Scatchard analysis, differentiated osteoblastic cells; set-up: Undifferentiated or differentiated human trabecular bone cells with osteogenic capacity in primary culture express oxytocin receptors (OTRs); endogenous in cells; host or cells: primary human osteoblastic cells from rib trabecular bone explants (undifferentiated, or differentiated in mineralizing medium)
Experimental: (§3) Cell Culture Conditions: Human osteosarcoma cells (Saos-2) cells were obtained from the ATCC (Rockville, Md.). Human osteoblasts (Cheng et al., 1994; Civitelli et al., 1993) were prepared from explants of cultured rib trabecular. These cells were grown in mineralizing media consisting of DMEM supplemented with 10% fetal bovine serum (FBS), 2% penicillin/streptomycin, dexamethasone (100 nM), ascorbate (50 μg/ml, and β3-glycerophosphate (10 μg/ml) in a humidified tissue culture incubator at 37C under an atmosphere of 5% CO2 and 95% air. These conditions accelerate the osteoblastic modulation of undifferentiated human trabecular bone cells and the production of osteogenic mineralizeable collagen matrix (Cheng et al., Civitelli et al., 1993). To retain undifferentiated osteoblastic phenotype, cells were cultured in the absence of dexamethasone, ascorbate, and β-glycerophosphate. Osteoblast phenotype was verified by alkaline phosphatase activity and mineralization of the extracellular matrix using von Kossa staining. The cells were used on the first passage following initial plating.
(§4) Determination of OTR ligand binding: OTA was monoiodinated as previously described (Hinko and Soloff, 1992). […] The concentration of cellular DNA was determined in parallel, using the Hoechst dye H 33258 and a Hoefer DyNA Quant fluorometer according to the manufacturer's instructions.

OTR [8] = target: T1, OTR; experiment: Whole cell OTR ligand binding, Scatchard analysis, undifferentiated osteoblastic cells; set-up: Undifferentiated or differentiated human trabecular bone cells with osteogenic capacity in primary culture express oxytocin receptors (OTRs); endogenous in cells; host or cells: primary human osteoblastic cells from rib trabecular bone explants (undifferentiated, or differentiated in mineralizing medium); conditions: +/- SE
Experimental: as §3, §4

OTR [9] = target: T1, OTR; experiment: Whole cell OTR ligand binding, Scatchard analysis, Saos-2 cells; set-up: Undifferentiated or differentiated human trabecular bone cells with osteogenic capacity in primary culture express oxytocin receptors (OTRs); endogenous in cells; host or cells: primary human osteoblastic cells from rib trabecular bone explants (undifferentiated, or differentiated in mineralizing medium)
Experimental: as §3, §4

bone; uterus = conditions: rats; compared with estradiol; cited from earlier work
rat osteogenic cells = conditions: in vitro; cited from earlier work
bone formation [10] = conditions: in vivo, high dose; cited from earlier work
cortical bone [11] = conditions: ovariectomized rats; cited from earlier work
bone formation [12] = conditions: in vivo; cited from earlier work
rat osteoblastic cell = conditions: combined with insulin-like growth factor-1; cited from earlier work

Molecule: CC[C@H](C)[C@@H]1NC(=O)[C@H](Cc2ccc(O)cc2)NC(=O)[C@@H](N)CSSC[C@@H](C(=O)N2CCC[C@H]2C(=O)N[C@@H](CC(C)C)C(=O)NCC(N)=O)NC(=O)[C@H](CC(N)=O)NC(=O)[C@H](CCC(N)=O)NC1=O [OT, oxytocin]
increase in PGE2 synthesis ([1]; 15 and 30 minutes): 2 fold
increase in PGE2 synthesis ([1]; by 1 h of OT stimulation): 4-6 fold
rise in [Ca2+]i (OTR [2]): responded within seconds to OT treatment with a rise in [Ca^2+ ]i
rise in [Ca2+]i (OTR [3]): responded within seconds to OT treatment with a rise in [Ca^2+ ]i
rise in [Ca2+]i (OTR [4]): responded within seconds to OT treatment with a rise in [Ca^2+ ]i

Molecule: Growth Hormone: growth hormone injections
formation and strength of cortical bone (cortical bone [5]): increase the formation and strength of cortical bone

Molecule: IGF-1/IGF BP-3: insulin-like growth factor-1 combined with insulin-like growth factor binding protein-3
effect of IGF-1 on bone formation when combined with IGF BP-3 (bone formation [6]): potentiated

Bmax (OTR [7]): 12.3+/-1.4 fmol/10 μg DNA
Kd (OTR [7]; read-out: apparent Kd): 0.175 ± 0.034 nM
Bmax (OTR [8]): 5.7+/-0.8 fmol/10 μg DNA
Kd (OTR [8]; read-out: apparent Kd): 0.132 ± 0.027 nM
Bmax (OTR [9]): 24.6+/-3.2 fmol/10 μg DNA
Kd (OTR [9]; read-out: apparent Kd): 0.15 ± 0.028 nM
Molecule: CC[C@H](C)[C@@H]1NC(=O)[C@H](Cc2ccc(OC)cc2)NC(=O)CC2(CCCCC2)SSC[C@@H](C(=O)N2CCC[C@H]2C(=O)N[C@@H](CCCN)C(=O)N[C@@H](Cc2ccc(O)cc2)C(N)=O)NC(=O)[C@H](CC(N)=O)NC(=O)[C@H]([C@@H](C)O)NC1=O [{^125 I]OTA] (Y(Me)ITNCP[Orn]Y-NH2; linker N-5 via X1)

Molecule: Oc1ccc2c(c1)CC[C@H](c1ccccc1)[C@@H]2c1ccc(OCCN2CCCC2)cc1 [CP-336,156]
uterine-stimulating effects (bone; uterus): without the uterine-stimulating effects associated with estradiol

Molecule: substance P: a neuropeptide with wide distribution in central and peripheral nervous system (RPKPQQFFGLM; ends and bridges not checked; UniProt P20366 58-68, looked up)
cell proliferation (rat osteogenic cells): increased cell proliferation in a dose dependent fashion

Molecule: C=C1/C(=C\C=C2/CCC[C@]3(C)[C@@H]([C@H](C)CCCC(C)(C)O)CC[C@@H]23)C[C@@H](O)C[C@@H]1O [1,25 dihydroxyvitamin D3]
bone formation (bone formation [10]): stimulates bone formation

B1: Parathyroid Hormone: parathyroid hormone (protein, UniProt P01270 32-115, looked up)
Parathyroid hormone: SVSEIQLMHNLGKHLNSMERVEWLRKKLQDVHNFVALGAPLAPRDAGSQRPRKKEDNVLVESHEKSLGEADKADVNVLTKAKSQ
modifications: Parathyroid hormone
femoral length and strength in cortical bone (cortical bone [11]): dose dependent increase

B2: Osteogenic Protein-1: osteogenic protein-1 (protein, UniProt P18075 293-431, looked up)
Bone morphogenetic protein 7: STGSKQRSQNRSKTPKNQEALRMANVAENSSSDQRQACKKHELYVSFRDLGWQDWIIAPEGYAAYYCEGECAFPLNSYMNATNHAIVQTLVHFINPETVPKPCCAPTQLNAISVLYFDDSSNVILKKYRNMVVRACGCH
new bone formation (bone formation [12]): induces new bone formation
stimulation of rat osteoblastic cell differentiation and proliferation (rat osteoblastic cell): synergistic with insulin-like growth factor-1
